Like-named read-outs stand apart in the source and are kept apart here.
What was measured:
EBV [1] = conditions: Table 4; cited from earlier work
HLA [2] = conditions: Table 4; cited from earlier work
CTL culture B5 = assay: Identification of specific peptide target, overlapping peptides on autologous PHA blasts; format: cell-based, human; conditions: peptides preincubated with autologous PHA blasts
Experimental: (§1) Limiting dilution cultures were established by distributing PBL from the fourth bleed in 24 replicates at 2×10^4 cells per well in 96-well round-bottomed microtitre plates. Doubling dilutions were made to a final concentration of 1.6×10^2 per well. Approximately 1×10^4 γ-irradiated (8000 rads) autologous type B (EW-Ag-876) LCLs were added to each well as both feeder and stimulator cells to a total volume of 100 μl. Cultures were fed on days 4 and 7 with 50 μl of T cell growth medium and assayed on day 10 or later. The plates were subcultured and maintained in T cell growth medium and stimulated with γ-irradiated EW-Ag-876 LCLs. Initial assays were against type A and type B LCLs and subsequently against peptide-coated PHA-blasts or LCLs. Precursor frequencies were determined by a modification of the method of maximum likelihood estimation (11). Assessment of peptide specific activity. For determination of the antigenic specificity at the peptide level, a set of 20-mer overlapping peptides of EBNA-6B (residues 100-1069 (46)) was prepared using a kit and software distributed by Chiron Mimotopes (Chiron Corporation, Sydney, Australia). Nine-mer and 10-mer overlapping peptides with unblocked C and N termini were manufactured by Chiron Mimotopes. Labelled target cells were preincubated with overlapping peptides in the 96-well trays for 30-60 minutes before adding effectors. […]

EBV [3] = assay: EBV type of CTL epitopes of the invention (Table 3); format: cell-based, Epstein-Barr virus
B-type epitope CTL = assay: HLA-restriction CTL assay of type B-specific epitope, cell lines with or without specific peptide; format: cell-based, human; conditions: QNGALAINTF specific CTLs, peptide-incubated targets of known HLA specificity
Experimental: as §1

T cell precursors = assay: Limiting dilution cultures, epitope specific precursor frequency; conditions: PBL of donor stimulated by autologous type B cells; assayed 12 weeks later
HLA [4] = conditions: Table 3

Row | Sequence | EBV Type (EBV [1]) | EBV Type (EBV [3]) | also measured
1 | AVLLHEESM | Type 1 | – | –
2 | CLGGLLTMV | Type 1 & 2 | – | HLA Rest. (HLA [2]): HLA A2
3 | DEPASTEPVHDQLL | Type 1 | – | –
4 | DTPLIPLTIF | Type 1 | – | –
5 | EENLLDFVRF | Type 1 & 2 | – | –
6 | FLRGRAYGL | Type 1 | – | HLA Rest. (HLA [2]): HLA B8
7 | HLAAQGMAY | Type 1 | – | –
8 | KEHVIQNAF | Type 1 | – | –
9 | LPGPQVTAVLLHEES | Type 1 | – | –
10 | NPTQAPVIQLVHAVY | Type 1 | – | –
11 | QNAARTLNTF [reference compound] | – | – | Recognition by type B specific culture B5 (CTL culture B5): nonreactive
12 | QNGALAINTF [residues 213-222 of EBNA-6B] | – | Type 2 | HLA restriction (B-type epitope CTL): B62 (B15)-restricted; Frequency (epitope specific T cell precursors) (T cell precursors): 1/16395; Recognition by type B specific culture B5 (CTL culture B5): minimal epitope
13 | QPRAPIRPI | Type 1 & 2 | – | HLA Rest. (HLA [2]): HLA B7
14 | QVKWRMTTL | – | Type 2 | –
15 | RLRAEAGVK | Type 1 | – | HLA Rest. (HLA [2]): HLA A3
16 | RPPIFIRRL | Type 1 | – | HLA Rest. (HLA [2]): HLA B7
17 | RRIYDLIKL | – | Type 1 | –
18 | RRRWRRLTV | Type 1 | – | –
19 | RYSIFFDY | Type 1 | – | –

Row | Sequence | EBV Type (EBV [1]) | EBV Type (EBV [3]) | also measured
20 | SVRDRLARL | Type 1 & 2 | – | HLA Rest. (HLA [2]): HLA A2
21 | TSLYNLRRGTALA | Type 1 & 2 | – | HLA Rest. (HLA [2]): HLA DR1
22 | TVFYNIPPMPL | Type 1 | – | HLA Rest. (HLA [2]): HLA DQ2
23 | TYSAGIVQI | – | Type 1 | –
24 | VEITPYEPTG | – | Type 1 | –
25 | VEITPYEPTW | – | Type 1 | –
26 | VEITPYKPTW | Type 1 | – | –
27 | VELTPYKPTW | – | Type 1 | –
28 | VFSDGRVAC | – | Type 1 | –
29 | VPAPAGPIV | – | Type 1 | –
30 | VPAPPVGPIV | – | Type 1 | –
31 | VSFIEFVGW | Type 1 | – | –
32 | VSSDGLVAC | – | Type 1 | –
33 | VSSDGQVAC | – | Type 1 | –
34 | VSSDGRVAC | – | Type 1 | –
35 | VSSDGRVPC | – | Type 1 | –
36 | VSSDGRVVC | – | Type 1 | HLA restriction (HLA [4]): HLA A29
37 | VSSEGRVAC | – | Type 1 | –

— US6699477B2, “EBV CTL epitopes” (The Council of the Queensland Institute of Medical Research, priority 1996, dated 2004)
